Data as given in ChEMBL document CHEMBL5584313, “Design and Synthesis of 7-Oxabicyclo[2.2.1]heptane-2,3-dicarboxylic Acid Derivatives as PP5 Inhibitors To Reverse Temozolomide Resistance in Glioblastoma Multiforme” (J Med Chem, 2024).
≈ marks a conversion by molar mass, not a printed value. Calls of active or inactive are those of the source. No cut-off for these calls is given here.

What was measured:
U-87MG ATCC [1] = assay: Upregulation of p53 expression in human U-87 MG cells at 6.25 to 100 uM after 24 hrs by Western blotting analysis; type: functional, cell-based; settings: dose 6.25-100 µM
[2] = Tmax in Sprague-Dawley rat at 25 mg/kg, po measured upto 24 hrs by LC-MS/MS method; type: ADME, organism-based; settings: in vivo
A549 = assay: Cytotoxicity against human A549 cells incubated for 48 hrs by CCK8 assay; type: functional, cell-based; settings: A549, 48 h
U-87MG ATCC [3] = assay: Upregulation of p53 expression in human U-87 MG cells at 25 uM after 24 hrs in presence TMZ by Western blotting analysis; type: functional, cell-based
[4] = AUC(0 to infinity) in Sprague-Dawley rat at 25 mg/kg, po measured upto 24 hrs by LC-MS/MS method; type: ADME, organism-based; settings: in vivo
[5] = Cmax in Sprague-Dawley rat at 5 mg/kg, iv measured upto 24 hrs by LC-MS/MS method; type: ADME, organism-based; settings: in vivo
Homo sapiens [6] = species on record: Homo sapiens; assay: Selectivity ratio of IC50 for PP1 (unknown origin ) to IC50 for PP5 (unknown origin)
U-87 MG [7] = assay: Antitumor activity against human U-87 MG cells xenografted in BALB/c nude mouse assessed as reduction in tumor weight at 3 mg/kg, po administered every other day for 18 days in presence of 40 mg/kg TMZ; type: functional, organism-based; settings: U-87MG ATCC, time 18.0 day
[8] = Apparent clearance in Sprague-Dawley rat at 25 mg/kg, po measured upto 24 hrs by LC-MS/MS method; type: ADME, organism-based; settings: in vivo, read-out: CL(app) (converted)
U-87MG ATCC [9] = assay: Downregulation of cyclin D1 expression in human U-87 MG cells at 25 uM incubated for 24 hrs by Western blotting analysis; type: functional, cell-based
U-87 MG [10] = assay: Antitumor activity against human U-87 MG cells xenografted in BALB/c nude mouse assessed as reduction in MGMT expression at 1.5 to 3 mg/kg, po measured after 4 hrs in presence of 40 mg/kg TMZ by Western blotting analysis; type: functional, organism-based; settings: U-87MG ATCC, dose 1.5-3 mg/kg
U-87 MG [11] = assay: Synergistic antiproliferative activity against human U-87 MG cells at 10 uM in presence of TMZ; type: functional, cell-based; settings: U-87MG ATCC
[12] = Cytotoxicity against human BEAS-2B incubated for 48 hrs by CCK8 assay; type: toxicity, cell-based; settings: BEAS-2B cells
[13] = Toxicity in BALB/c nude mouse xenografted with U-87 MG cells assessed as spleen damage at 1.5 to 3 mg/kg, po administered every other day for 18 days in presence of 40 mg/kg TMZ by H and E staining based assay; type: organism-based; settings: in vivo, 432 h, dose 1.5-3 mg/kg, time 18 day
U-87 MG [14] = assay: Induction of apoptosis in human U-87 MG cells assessed as S phase cells at 5 uM incubated for 24 hrs by propidium iodide staining based flow cytometry analysis (reference value: 29.4%); type: functional, U-87MG ATCC
U-87 MG [15] = assay: Antitumor activity against human U-87 MG cells xenografted in BALB/c nude mouse assessed as increase in p53 expression at 1.5 to 3 mg/kg, po measured after 4 hrs in presence of 40 mg/kg TMZ by Western blotting analysis; type: functional, organism-based; settings: U-87MG ATCC, dose 1.5-3 mg/kg
U-87 MG [16] = assay: Antitumor activity against human U-87 MG cells xenografted in BALB/c nude mouse assessed as tumor tissue necrosis at 1.5 to 3 mg/kg, po administered every other day for 18 days in presence of 40 mg/kg TMZ; type: functional, organism-based; settings: U-87MG ATCC, dose 1.5-3 mg/kg, time 18.0 day
U-87MG ATCC [17] = assay: Downregulation of MGMT expression in human U-87 MG cells at 25 uM incubated for 24 hrs by Western blotting analysis; type: functional, cell-based
[18] = Tmax in Sprague-Dawley rat at 5 mg/kg, iv measured upto 24 hrs by LC-MS/MS method; type: ADME, organism-based; settings: in vivo
U-87 MG [19] = assay: Antitumor activity against human U-87 MG cells xenografted in BALB/c nude mouse assessed as tumor growth inhibition at 1.5 mg/kg, po administered every other day for 18 days in presence of 40 mg/kg TMZ; type: functional, U-87MG ATCC; settings: 432 h, time 18 day, read-out: TGI
[20] = Stability in mouse plasma assessed as half life measured upto 300 mins by LC-MS/MS analysis; type: ADME, cell-free
[21] = Apparent volume of distribution in Sprague-Dawley rat at 5 mg/kg, iv measured upto 24 hrs by LC-MS/MS method; type: ADME, organism-based; settings: in vivo, read-out: Vz
U-87 MG [22] = assay: Induction of apoptosis in human U-87 MG cells assessed as G2/M phase cells at 5 uM incubated for 24 hrs by propidium iodide staining based flow cytometry analysis (reference value: 11.9%); type: functional, U-87MG ATCC
[23] = Oral bioavailability in Sprague-Dawley rat at 25 mg/kg measured upto 24 hrs by LC-MS/MS method; type: ADME, organism-based; settings: in vivo
[24] = Inhibition of PP2A in human U-87 MG cell lysate using RRA(pT)VA as substrate; type: subcellular
U-87MG ATCC [25] = assay: Upregulation of p27 expression in human U-87 MG cells at 6.25 to 100 uM after 24 hrs by Western blotting analysis; type: functional, cell-based; settings: dose 6.25-100 µM
[26] = Half-life in Sprague-Dawley rat at 25 mg/kg, po measured upto 24 hrs by LC-MS/MS method; type: ADME, organism-based; settings: in vivo
[27] = Cmax in Sprague-Dawley rat at 25 mg/kg, po measured upto 24 hrs by LC-MS/MS method; type: ADME, organism-based; settings: in vivo
U-87 MG [28] = assay: Induction of apoptosis in human U-87 MG cells assessed as G0/G1 phase cells at 5 uM incubated for 24 hrs by propidium iodide staining based flow cytometry analysis (reference value: 58.8%); type: functional, U-87MG ATCC
[29] = Toxicity in BALB/c nude mouse xenografted with U-87 MG cells assessed as change in body weight at 1.5 to 3 mg/kg, po administered every other day for 18 days in presence of 40 mg/kg TMZ; type: organism-based; settings: in vivo, 432 h, dose 1.5-3 mg/kg, time 18 day
U-87 MG [30] = assay: Synergistic antiproliferative activity against human U-87 MG cells in presence of TMZ; type: functional, cell-based, U-87MG ATCC
[31] = Stability of compound in water assessed as remaining compound after 24 hrs; type: physicochemical; settings: read-out: Stability
[32] = Toxicity in BALB/c nude mouse xenografted with U-87 MG cells assessed as heart damage at 1.5 to 3 mg/kg, po administered every other day for 18 days in presence of 40 mg/kg TMZ by H and E staining based assay; type: organism-based; settings: in vivo, 432 h, dose 1.5-3 mg/kg, time 18 day
Homo sapiens [33] = species on record: Homo sapiens; assay: Selectivity ratio of IC50 for PP2A (unknown origin ) to IC50 for PP5 (unknown origin)
U-87MG ATCC [34] = assay: Upregulation of p21 expression in human U-87 MG cells at 6.25 to 100 uM after 24 hrs by Western blotting analysis; type: functional, cell-based; settings: dose 6.25-100 µM
U-87MG ATCC [35] = assay: Downregulation of MGMT expression in human U-87 MG cells at 25 uM incubated for 24 hrs in presence of TMZ by Western blotting analysis; type: functional, cell-based
U-87 MG [36] = assay: Antitumor activity against human U-87 MG cells xenografted in BALB/c nude mouse assessed as tumor growth retardation at 3 mg/kg, po administered every other day for 18 days; type: functional, organism-based; settings: U-87MG ATCC, time 18.0 day
[37] = AUC(0 to infinity) in Sprague-Dawley rat at 5 mg/kg, iv measured upto 24 hrs by LC-MS/MS method; type: ADME, organism-based; settings: in vivo
[38] = Aqueous solubility of compound by HPLC method; type: physicochemical; settings: water
[39] = Cytotoxicity against HEK293T cells incubated for 48 hrs by CCK8 assay; type: toxicity, cell-based, HEK-293T; settings: human

With `O=C(O)[C@@H]1[C@H](C(=O)n2ccc3ccccc32)[C@H]2CC[C@@H]1O2` the Activity (U-87MG ATCC [1]) was “Active”, the Tmax [2] was 1.17 h and the IC50 (A549) was 69.6 µM. The Activity (U-87MG ATCC [3]) was “Active”, the AUC(0-inf) [4] was 54400 ng·h/mL and the Cmax [5] was 8620 ng/mL. The Ratio IC50 (Homo sapiens [6]) was 21.4, the Activity (U-87 MG [7]) was “Active” and the CL/F [8] was 7.69 mL/min/kg. For the same compound, the Activity (U-87MG ATCC [9]) was “Active”, the Activity (U-87 MG [10]) was “Active” and the Activity (U-87 MG [11]) was “Active”. The IC50 at 48 h [12] was 57.8 µM, the Activity [13] was “Non-Toxic” and the Activity (U-87 MG [14]) was 19.2%. For the same compound, the Activity (U-87 MG [15]) was “Active”, the Activity (U-87 MG [16]) was “Active” and the Activity (U-87MG ATCC [17]) was “Active”. For the same compound, the Tmax [18] was 1.2 min, the inhibition in vivo at 1.5 mg/kg (U-87 MG [19]) was 70.9% and the half-life [20] was 2.09 h. The Vd [21] was 1.32 L/kg, the Activity (U-87 MG [22]) was 10.9% and the bioavailability [23] was 82%. For the same compound, the IC50 [24] was 33.8 µM, the Activity (U-87MG ATCC [25]) was “Active” and the half-life [26] was 3.94 h. The Cmax [27] was 11300 ng/mL, the Activity (U-87 MG [28]) was 72.2% and the Activity [29] was “Non-Toxic”. The IC50 (U-87 MG [30]) was 19.8 µM, the remaining at 24 h [31] was 98.3% and the Activity [32] was “Non-Toxic”. The Ratio IC50 (Homo sapiens [33]) was 38, the Activity (U-87MG ATCC [34]) was “Active” and the Activity (U-87MG ATCC [35]) was “Active”. For the same compound, the Activity (U-87 MG [36]) was “Active”, the AUC(0-inf) [37] was 13300 ng·h/mL and the solubility [38] was 552 µg/mL (≈ 1930 µM). For the same compound, the IC50 at 48 h [39] was > 200 µM.
